Test results as given in patent publication US20210070748A1, “INHIBITORS OF BRUTONS TYROSINE KINASE” (Pharmacyclics LLC, priority 2015, published 2021).

Key:
Assay type in all cases: biochemical
[1] = molecular target: LCK (Homo sapiens, UniProt P06239); assay: Inhibition of a panel of kinases, in vitro HotSpot kinase assay: LCK; settings: D-compounds panel data; 1 μM ATP; read-out: IC50 LCK
[2] = molecular target: T1, ITK (Homo sapiens, UniProt Q08881); assay: Inhibition of a panel of kinases, in vitro HotSpot kinase assay: ITK; settings: D-compounds panel data; 1 μM ATP
T1 sequence (Q08881 1-620): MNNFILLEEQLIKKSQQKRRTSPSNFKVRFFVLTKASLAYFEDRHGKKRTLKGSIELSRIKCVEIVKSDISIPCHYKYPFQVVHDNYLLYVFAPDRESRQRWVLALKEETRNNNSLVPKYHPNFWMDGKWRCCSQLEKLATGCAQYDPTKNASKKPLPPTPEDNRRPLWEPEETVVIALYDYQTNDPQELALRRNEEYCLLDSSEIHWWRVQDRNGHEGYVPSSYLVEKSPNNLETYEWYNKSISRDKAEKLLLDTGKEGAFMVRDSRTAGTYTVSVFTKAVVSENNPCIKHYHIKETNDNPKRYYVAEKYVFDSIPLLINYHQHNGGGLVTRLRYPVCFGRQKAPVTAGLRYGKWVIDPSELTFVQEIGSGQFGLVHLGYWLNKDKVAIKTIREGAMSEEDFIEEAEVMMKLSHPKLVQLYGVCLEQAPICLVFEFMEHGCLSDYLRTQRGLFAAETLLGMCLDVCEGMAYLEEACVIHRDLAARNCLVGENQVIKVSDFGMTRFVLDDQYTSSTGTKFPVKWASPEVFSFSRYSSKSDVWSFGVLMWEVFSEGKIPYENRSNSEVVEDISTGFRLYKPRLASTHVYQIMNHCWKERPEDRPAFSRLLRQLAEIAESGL
Method: (§1) The degree of inhibition of a panel of kinases is determined using the in vitro HotSpot kinase assay (purified enzymes, ^33P-ATP, an appropriate substrate and 1 μM ATP).

[3] = molecular target: EGFR (Homo sapiens, UniProt P00533); assay: Inhibition of a panel of kinases, in vitro HotSpot kinase assay: EGFR; settings: D-compounds panel data; 1 μM ATP
Method: as §1

[4] = molecular target: T2, TEC (Homo sapiens, UniProt P42680); assay: Inhibition of a panel of kinases, in vitro HotSpot kinase assay: TEC; settings: D-compounds panel data; 1 μM ATP
T2 sequence (P42680 1-631): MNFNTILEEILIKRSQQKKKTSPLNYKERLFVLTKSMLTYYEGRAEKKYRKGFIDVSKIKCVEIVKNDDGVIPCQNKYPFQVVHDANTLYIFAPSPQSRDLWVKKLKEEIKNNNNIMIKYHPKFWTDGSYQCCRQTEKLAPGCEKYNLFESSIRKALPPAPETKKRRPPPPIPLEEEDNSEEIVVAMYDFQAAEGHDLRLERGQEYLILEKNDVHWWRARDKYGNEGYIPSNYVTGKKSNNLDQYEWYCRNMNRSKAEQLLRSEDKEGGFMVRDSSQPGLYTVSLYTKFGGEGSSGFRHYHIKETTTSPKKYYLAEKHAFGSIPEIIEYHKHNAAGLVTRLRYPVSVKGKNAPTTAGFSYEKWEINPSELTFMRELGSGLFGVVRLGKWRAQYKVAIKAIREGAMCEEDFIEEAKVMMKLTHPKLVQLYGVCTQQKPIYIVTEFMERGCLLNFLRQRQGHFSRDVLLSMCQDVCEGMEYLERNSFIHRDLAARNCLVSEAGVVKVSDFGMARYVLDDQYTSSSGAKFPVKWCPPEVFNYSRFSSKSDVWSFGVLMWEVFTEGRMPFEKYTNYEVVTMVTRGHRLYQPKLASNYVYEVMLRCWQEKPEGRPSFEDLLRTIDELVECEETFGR
Method: as §1

Chain of LCK (P06239 whole entry): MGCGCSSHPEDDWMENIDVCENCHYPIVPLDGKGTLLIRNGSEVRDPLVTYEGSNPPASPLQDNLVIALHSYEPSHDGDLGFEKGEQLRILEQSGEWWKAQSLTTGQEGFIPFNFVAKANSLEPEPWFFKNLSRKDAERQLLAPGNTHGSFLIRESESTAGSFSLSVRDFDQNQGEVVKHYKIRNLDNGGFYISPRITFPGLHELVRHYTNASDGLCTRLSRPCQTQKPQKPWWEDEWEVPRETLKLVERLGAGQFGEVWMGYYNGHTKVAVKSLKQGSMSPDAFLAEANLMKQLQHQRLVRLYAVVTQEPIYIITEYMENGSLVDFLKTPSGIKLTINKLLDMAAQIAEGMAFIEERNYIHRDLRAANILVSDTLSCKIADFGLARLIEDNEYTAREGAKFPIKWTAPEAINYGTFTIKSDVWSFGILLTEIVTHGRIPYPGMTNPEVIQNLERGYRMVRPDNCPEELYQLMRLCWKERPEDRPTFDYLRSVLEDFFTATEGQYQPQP
Chain of EGFR (P00533 25-1210): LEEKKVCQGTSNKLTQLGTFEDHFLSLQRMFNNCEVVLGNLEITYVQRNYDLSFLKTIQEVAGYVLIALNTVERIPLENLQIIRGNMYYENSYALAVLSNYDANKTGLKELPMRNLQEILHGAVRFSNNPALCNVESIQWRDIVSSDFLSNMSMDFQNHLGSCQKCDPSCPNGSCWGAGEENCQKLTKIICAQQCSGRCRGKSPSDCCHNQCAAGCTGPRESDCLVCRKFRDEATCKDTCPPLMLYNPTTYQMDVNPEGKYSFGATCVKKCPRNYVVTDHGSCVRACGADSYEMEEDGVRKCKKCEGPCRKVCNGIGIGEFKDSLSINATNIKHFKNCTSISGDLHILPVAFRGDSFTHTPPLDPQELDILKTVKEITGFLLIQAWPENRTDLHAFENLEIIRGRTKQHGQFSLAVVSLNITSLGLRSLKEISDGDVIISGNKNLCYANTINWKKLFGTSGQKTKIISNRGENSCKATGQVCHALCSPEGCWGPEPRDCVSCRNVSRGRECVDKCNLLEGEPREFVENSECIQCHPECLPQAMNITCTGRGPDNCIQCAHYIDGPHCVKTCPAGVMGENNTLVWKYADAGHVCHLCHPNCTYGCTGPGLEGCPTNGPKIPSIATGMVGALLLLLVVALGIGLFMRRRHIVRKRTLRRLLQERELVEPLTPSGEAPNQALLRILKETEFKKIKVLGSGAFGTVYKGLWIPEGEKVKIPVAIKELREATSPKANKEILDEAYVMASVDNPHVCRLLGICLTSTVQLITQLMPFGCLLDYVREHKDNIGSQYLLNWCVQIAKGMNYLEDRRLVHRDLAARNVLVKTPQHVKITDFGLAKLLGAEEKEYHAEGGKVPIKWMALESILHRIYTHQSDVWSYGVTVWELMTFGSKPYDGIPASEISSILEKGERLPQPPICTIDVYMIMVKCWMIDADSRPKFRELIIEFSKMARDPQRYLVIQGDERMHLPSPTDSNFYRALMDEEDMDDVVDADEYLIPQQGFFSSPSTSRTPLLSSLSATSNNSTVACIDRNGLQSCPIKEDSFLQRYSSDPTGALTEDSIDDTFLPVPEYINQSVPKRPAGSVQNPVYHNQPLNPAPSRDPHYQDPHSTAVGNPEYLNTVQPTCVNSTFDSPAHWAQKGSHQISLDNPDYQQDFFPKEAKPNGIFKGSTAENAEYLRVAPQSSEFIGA

Row | IC50 [1] | IC50 [2] | IC50 [3] | IC50 [4] | Structure (SMILES)
1 | 0.1 to 1 µM | > 10 µM | 0.1 to 1 µM | 1 to 10 µM | Cc1cc(Nc2nc(N3C[C@H](NC(=O)N(C)C)CC[C@@H]3C)cnc2C(N)=O)sn1 [Example D-74, 5-[(2S,5R)-5-[(dimethylcarbamoyl)amino]-2-methylpiperidin-1-yl]-3-[(3-methyl-1,2-thiazol-5-yl)amino]pyrazine-2-carboxamide]
2 | > 10 µM | 1 to 10 µM | > 10 µM | 1 to 10 µM | Cn1cc(Nc2nc(N3CCC(NC(=O)c4ccc(C5CC5)cc4)C(O)C3)cnc2C(N)=O)cn1 (single isomer, unassigned) [Example D-29, Trans-5-[4-(4-cyclopropylbenzamido)-3-hydroxypiperidin-1-yl]-3-[(1-methyl-1H-pyrazol-4-yl)amino]pyrazine-2-carboxamide]
3 | > 10 µM | > 10 µM | > 10 µM | 0.01 to 0.1 µM | C[C@@H]1[C@H](NC(=O)c2ccc(C3CC3)cc2)CCCN1c1cnc(C(N)=O)c(Nc2ccc(C3CCOCC3)cc2)n1 [Example D-317, 5-[(2R,3R)-3-(4-cyclopropylbenzamido)-2-methylpiperidin-1-yl]-3-{[4-(oxan-4-yl)phenyl]amino}pyrazine-2-carboxamide]
4 | 0.01 to 0.1 µM | 0.1 to 1 µM | 0.1 to 1 µM | 0.01 to 0.1 µM | C[C@@H]1[C@H](NC(=O)c2ccc(C(F)(F)F)nc2)CCCN1c1cnc(C(N)=O)c(Nc2cnn(C)c2)n1 [Example D-91, 3-[(1-methyl-1H-pyrazol-4-yl)amino]-5-[(2R,3R)-2-methyl-3-[6-(trifluoromethyl)pyridine-3-amido]piperidin-1-yl]pyrazine-2-carboxamide]
5 | 1 to 10 µM | > 10 µM | > 10 µM | 0.1 to 1 µM | C[C@@H]1C[C@H](NC(=O)c2ccc(C3CC3)cc2)CN(c2cnc(C(N)=O)c(Nc3cnn(C)c3)n2)C1 [Example D-32, 5-[(3S,5R)-3-(4-cyclopropylbenzamido)-5-methylpiperidin-1-yl]-3-[(1-methyl-1H-pyrazol-4-yl)amino]pyrazine-2-carboxamide]
6 | 0.01 to 0.1 µM | 0.1 to 1 µM | 1 to 10 µM | 0.01 to 0.1 µM | C[C@@H]1[C@H](NC(=O)c2ccc(C(C)(C)O)nc2)CCCN1c1nnc(C(N)=O)c(Nc2cnn(C)c2)n1 [Example D-41, 3-[(2R,3R)-3-[6-(2-hydroxypropan-2-yl)pyridine-3-amido]-2-methylpiperidin-1-yl]-5-[(1-methyl-1H-pyrazol-4-yl)amino]-1,2,4-triazine-6-carboxamide]
7 | 0.1 to 1 µM | > 10 µM | 0.1 to 1 µM | 0.1 to 1 µM | Cn1cc(Nc2nc(N3CCC[C@@H]4[C@H]3CCN4C(=O)c3ccc(C4CC4)cc3)cnc2C(N)=O)cn1 [Example D-44, 5-[(3aR,7aR)-1-(4-cyclopropylbenzoyl)-octahydro-1H-pyrrolo[3,2-b]pyridin-4-yl]-3-[(1-methyl-1H-pyrazol-4-yl)amino]pyrazine-2-carboxamide]
8 | 0.1 to 1 µM | 1 to 10 µM | 1 to 10 µM | 0.01 to 0.1 µM | C[C@@H]1[C@H](NC(=O)c2ccc(C3CC3)cc2)CCCN1c1cnc(C(N)=O)c(Nc2ccc(N3CCN(C)CC3)c(C(F)(F)F)c2)n1 [Example D-92, 5-[(2R,3R)-3-(4-cyclopropylbenzamido)-2-methylpiperidin-1-yl]-3-{[4-(4-methylpiperazin-1-yl)-3-(trifluoromethyl)phenyl]amino}pyrazine-2-carboxamide]
9 | > 10 µM | > 10 µM | > 10 µM | > 10 µM | Cc1cc(Nc2nc(N3CCC[C@H](NC(=O)N(C)C)[C@@H]3CO)cnc2C(N)=O)sn1 [Example D-68, 5-[(2R,3S)-3-[(dimethylcarbamoyl)amino]-2-(hydroxymethyl)piperidin-1-yl]-3-[(3-methyl-1,2-thiazol-5-yl)amino]pyrazine-2-carboxamide]

More lines, now with the values behind:

Row | Structure (SMILES) | IC50 [1] | IC50 [2] | IC50 [3] | IC50 [4]
10 | C[C@@H]1[C@H](NC(=O)c2ccc(C3CC3)cc2)CCCN1c1cnc(C(N)=O)c(Nc2ccc(N3CCN(C)CC3)cc2)n1 [Example D-81] | 0.01 to 0.1 µM | 0.1 to 1 µM | 0.1 to 1 µM | 0.01 to 0.1 µM
11 | Cn1cc(Nc2nc(N3CCC[C@@H]4[C@H]3CCN4C(=O)c3ccccc3)cnc2C(N)=O)cn1 (racemic) [Example D-54, (racemic)-cis-5-{1-benzoyl-octahydro-1H-pyrrolo[3,2-b]pyridin-4-yl}-3-[(1-methyl-1H-pyrazol-4-yl)amino]pyrazine-2-carboxamide] | 0.1 to 1 µM | 1 to 10 µM | > 10 µM | 0.1 to 1 µM
12 | CN1CCN(C(=O)c2ccc(Nc3nc(N[C@H]4CC[C@@H](NC(=O)N(C)C)CC4)cnc3C(N)=O)cc2)CC1 [Example D-72, 3-{[4-(4-methylpiperazine-1-carbonyl)phenyl]amino}-5-{[(1s,4s)-4-[(dimethylcarbamoyl)amino]cyclohexyl]amino}pyrazine-2-carboxamide] | 0.01 to 0.1 µM | 1 to 10 µM | 1 to 10 µM | 1 to 10 µM
13 | C[C@@H]1[C@H](NC(=O)c2cnc(C3CC3)nc2)CCCN1c1cnc(C(N)=O)c(Nc2cnn(C)c2)n1 [Example D-86, 5-[(2R,3R)-3-(2-cyclopropylpyrimidine-5-amido)-2-methylpiperidin-1-yl]-3-[(1-methyl-1H-pyrazol-4-yl)amino]pyrazine-2-carboxamide] | 0.01 to 0.1 µM | 0.01 to 0.1 µM | 1 to 10 µM | ≤ 0.01 µM
14 | C[C@@H]1[C@H](NC(=O)c2ccc(C3CC3)cc2)CCCN1c1cnc(C(N)=O)c(Nc2ccc(CN3CCOCC3)cc2)n1 [Example D-316, 5-[(2R,3R)-3-(4-cyclopropylbenzamido)-2-methylpiperidin-1-yl]-3-{[4-(morpholin-4-ylmethyl)phenyl]amino}pyrazine-2-carboxamide] | 0.01 to 0.1 µM | 0.1 to 1 µM | 0.1 to 1 µM | 0.01 to 0.1 µM
15 | Cc1cc(Nc2nc(N3C[C@@H](NC(=O)N(C)C)CC[C@H]3C)cnc2C(N)=O)sn1 [Example D-75, 5-[(2R,5S)-5-[(dimethylcarbamoyl)amino]-2-methylpiperidin-1-yl]-3-[(3-methyl-1,2-thiazol-5-yl)amino]pyrazine-2-carboxamide] | 0.1 to 1 µM | 1 to 10 µM | 0.1 to 1 µM | 0.1 to 1 µM
16 | Cn1cc(Nc2nc(N3CCC(NC(=O)c4ccc(C5CC5)cc4)C(O)C3)cnc2C(N)=O)cn1 (single isomer, unassigned) [Example D-28, Trans-5-[4-(4-cyclopropylbenzamido)-3-hydroxypiperidin-1-yl]-3-[(1-methyl-1H-pyrazol-4-yl)amino]pyrazine-2-carboxamide] | > 10 µM | 1 to 10 µM | > 10 µM | > 10 µM
17 | CN(C)C(=O)N[C@H]1CCCN(c2cnc(C(N)=O)c(Nc3ccc4ncccc4c3)n2)[C@@H]1CO (racemic) [Example D-64, trans 5-[3-[(dimethylcarbamoyl)amino]-2-(hydroxymethyl)piperidin-1-yl]-3-[(quinolin-6-yl)amino]pyrazine-2-carboxamide] | > 10 µM | > 10 µM | > 10 µM | 1 to 10 µM
18 | C[C@@H]1[C@H](N2Cc3cc(C4CC4)ccc3C2=O)CCCN1c1cnc(C(N)=O)c(Nc2cnn(C)c2)n1 [Example D-36, 5-[(2R,3R)-3-(5-cyclopropyl-1-oxo-2,3-dihydro-1H-isoindol-2-yl)-2-methylpiperidin-1-yl]-3-[(1-methyl-1H-pyrazol-4-yl)amino]pyrazine-2-carboxamide] | 0.1 to 1 µM | 0.1 to 1 µM | 0.1 to 1 µM | ≤ 0.01 µM
19 | C[C@H]1C[C@H](NC(=O)c2ccc(C3CC3)cc2)CN(c2cnc(C(N)=O)c(Nc3cnn(C)c3)n2)C1 [Example D-34, 5-[(3S,5S)-3-(4-cyclopropylbenzamido)-5-methylpiperidin-1-yl]-3-[(1-methyl-1H-pyrazol-4-yl)amino]pyrazine-2-carboxamide] | > 10 µM | > 10 µM | > 10 µM | 1 to 10 µM
